# Measured values taken from US7462741B2, “Naphthalene compounds” (Les Laboratoires Servier, priority 2006, dated 2008).
# Key:
# [1] = molecular target: T1, MT2 receptor (Homo sapiens, UniProt P49286); experiment: Melatonin MT2 receptor binding study; settings: 2-[125I]-iodomelatonin radioligand, competitive binding in triplicate
# T1 sequence (P49286 1-362): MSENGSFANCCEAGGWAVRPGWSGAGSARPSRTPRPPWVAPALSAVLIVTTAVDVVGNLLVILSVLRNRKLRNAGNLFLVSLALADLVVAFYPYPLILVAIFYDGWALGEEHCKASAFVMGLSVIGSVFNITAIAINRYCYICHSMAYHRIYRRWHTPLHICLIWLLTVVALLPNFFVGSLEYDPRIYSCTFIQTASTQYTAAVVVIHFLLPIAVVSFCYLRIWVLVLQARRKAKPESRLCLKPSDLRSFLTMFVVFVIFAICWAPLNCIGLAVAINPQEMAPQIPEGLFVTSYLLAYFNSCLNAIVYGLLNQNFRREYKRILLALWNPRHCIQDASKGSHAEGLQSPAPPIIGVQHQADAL
# Description: (§1) The MT1 or MT2 receptor binding experiments are carried out using 2-[^125I]-iodomelatonin as reference radioligand. The radioactivity retained is determined using a liquid scintillation counter.
# (§2) Competitive binding experiments are then carried out in triplicate using the various test compounds. A range of different concentrations is tested for each compound. The results enable the binding affinities of the compounds tested (Ki) to be determined.
# [2] = molecular target: MT1 receptor (Homo sapiens, UniProt P48039); experiment: Melatonin MT1 receptor binding study; settings: 2-[125I]-iodomelatonin radioligand, competitive binding in triplicate
# Chain of MT1 receptor (P48039 whole entry): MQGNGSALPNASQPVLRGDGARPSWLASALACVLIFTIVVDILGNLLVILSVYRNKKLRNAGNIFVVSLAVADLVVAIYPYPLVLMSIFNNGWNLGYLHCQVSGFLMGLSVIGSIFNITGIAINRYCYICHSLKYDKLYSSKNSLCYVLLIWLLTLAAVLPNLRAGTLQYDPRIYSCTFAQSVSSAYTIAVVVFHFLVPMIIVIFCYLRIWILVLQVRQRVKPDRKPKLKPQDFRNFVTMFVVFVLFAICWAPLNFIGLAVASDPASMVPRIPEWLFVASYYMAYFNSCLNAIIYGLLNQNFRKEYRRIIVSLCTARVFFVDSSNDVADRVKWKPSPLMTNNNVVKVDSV
# Description: as §1, §2
smiles,measurement,setting,value
"CCC(=O)NCC(CO)c1cccc2ccc(OC)cc12 (centres unmarked) [Example 1, N-[3-Hydroxy-2-(7-methoxy-1-naphthyl)propyl]propanamide]",Ki,[1],3.2 nM
same,Ki,[2],1.4 nM
